Source: US8466118B2, “Modulation of blood brain barrier protein expression” (Saint Louis University, priority 2007, dated 2013)
Oligonucleotides are written 5' to 3', each unit as a sugar letter and its base; * is a phosphorothioate linkage, no mark a phosphodiester; rarer units and linkages stand in square brackets, end groups in braces. Plain capitals give the bases only. No end group written: not given here. d = 2'-deoxy (DNA)

What was measured:
[1] = CNS pharmacokinetics of iv P-Olg (influx rate, saturability, capillary depletion, regional uptake); type: in vivo, mouse; conditions: for distribution between brain capillaries and parenchyma (capillary depletion) / saturability of brain uptake: 30 min after iv; for distribution between brain capillaries and parenchyma (capillary depletion): with vascular washout; for saturability of brain uptake: co-administration of 10 μg unlabeled PS-ODN; for rate of brain uptake (Ki): iv (jugular), multiple-time regression 2-30 min; for mean regional uptake into hippocampus (HPC) versus frontal cortex (FC) and whole brain (WB): iv, 2-30 min
Protocol: For this analysis, the brain/serum ratios for time points ranging from 2 to 30 min after i.v. injection was plotted against their respective exposure times (Expt). Expt is used instead of real time because this value corrects for the clearance of the injected substance from the blood. Without this correction, the influx rate would be overestimated. […] Expt will be calculated using the following formula: Expt=[∫^toCp(t)dt]/Cpt, where t is time, Cp represents the level of radioactivity in the serum and Cpt is the level of radioactivity in the serum at time t.
(§1) Calculation of the percent of injected dose taken up per gram of tissue: For the purpose of these studies, mice were injected iv (into the jugular vein) with P-19 mer or P-23 mer (5×10^5 cpm/200 μl of Lactated Ringer's solution (Baxter Healthcare Corporation, Deerfiled, Ill.) supplemented with 1% BSA). […] Serum levels of radioactivity were determined by counting 50 μl of serum in a gamma counter.
(§2) The % of the injected dose taken up by each gram of either whole brain, brain region (hippocampus or frontal cortex) or liver tissue (% Inj dose/g brain) was calculated using the following formula: % Inj dose/g brain=100(Am/Cpt−Vi)Cpt/Inj, where Am/Cpt represents the brain/serum ratio at time t, and Inj is the mean dose injected i.v. Subtracting Vi from the tissue/serum ratio corrects for P-Olg in the vascular space of the whole tissue. This will remove the vascular component so that the quantities expressed represent only the P-Olg that has been taken up by tissue. The values for % Inj dose/g brain will be plotted against their respective time points (min).
Measuring saturability of brain uptake for cocktail ODNs: To determine if brain uptake of each individual P-Olg was saturable, 10 μg/mouse of unlabeled cocktail PS-ODN (either 19 mer or 23 mer) was included in the i.v. injection of either P-19 mer or P-23 mer at a dose of 5×10^5 cpm/200 μl of Lactated Ringer's solution supplemented with 1% BSA [LR-BSA]). Brain and serum samples were collected 30 min after i.v. injection. Results were expressed as brain/serum ratios.
In these studies, mice received an iv injection of either P-19 mer or P-23 mer at a dose of 5×10^5 cpm/200 μl LR-BSA into the jugular vein. Washout of the vascular space was performed to remove any substances that were intravascular or loosely adhered to the capillary lumen of the brain microvasculature.
Mice were anesthetized with 40% urethane and, at 30 min after i.v. injection of P-Olg into the jugular vein, the abdomen was opened and arterial blood was collected from the abdominal aorta. Next, the thorax was opened with a midline sternal incision and the descending thoracic aorta was clamped to cut off the circulation to the lower body. Both jugular veins were severed and an 18-gauge needle connected to a 20 ml syringe containing lactated Ringers (LR) solution was inserted into the left ventricle of the heart. All 20 ml of LR were infused into the mouse heart over a period of 1-2 min. This washes out the vascular space of the brain and drains out the severed jugular veins. […] Next, the homogenate was vortexed and homogenized a second time (3 strokes). All homogenization steps were performed at 4° C. on ice. […] After centrifugation, the supernatant containing the brain parenchyma was separated from the pellet (containing the brain microvasculature) and the level of radioactivity was determined with a Beckman scintillation counter.
Results from the capillary depletion experiments were expressed as the volume of distribution in the brain or capillaries for the injected substance. Volume of distribution (VD) values were expressed as tissue (parenchyma or capillary)/serum ratios and were calculated for both fractions using the following formula: VD=(cpm/gram of tissue)/(cpm/ml of serum)

[2] = Brain-to-blood efflux rate of icv P-Olg; type: in vivo, mouse; conditions: for half-life of efflux from the brain: first 20 min after icv administration; for rate of brain efflux: icv injection
Protocol: First, mice were anesthetized with an i.p. injection of 40% urethane. After the scalp was removed, a hole was made through the cranium (1.0 mm lateral and 0.5 mm posterior to bregma) with a 26-gauge needle. All of the needle except 2.5 to 3.0 mm of the tip was covered by PE-10 tubing. […] Injections were made into the lateral ventricle (icv) with a 1.0 μl Hamilton syringe.
In experiments in which brain efflux of the cocktail PS-ODNs were determined, each P-Olg (either P-19 mer or P-23 mer) was studied separately. A P-Olg (5×10^3 cpm/μl) was administered by icv injection. Mice were then decapitated at 2, 5, and 20 min after injection and the brain was removed. The amount of radioactivity present in the brain was measured by a scintillation counter. The amount of radioactivity in the brain at t=0 was estimated in mice overdosed with urethane. […] Brains from these mice were removed 10 min after injection. The log of the mean % of the injected dose of radioactivity (amount detected/amount injected*100=% Inj Dose) in each brain was plotted against time (min) and linear regression analysis was used to create a line between these time points.

[3] = Percent of iv injected dose taken up per gram of brain or liver; type: in vivo, mouse
Protocol: as §1, §2
For these studies, the PS-ODNs were delivered iv and relative uptake into the brain and liver (from 5-30 min) were studied.

mouse brain microvessels = test: I-PACAP27 binding to isolated mouse brain microvessels; conditions: for displacement of I-PACAP27 binding by unlabeled peptide: 50 nM unlabeled peptide, 2.5 min
Protocol: Binding Study. Freshly isolated microvessels (30 μg protein) were resuspended in 45 μl of incubation buffer (129 mM NaCl, 2.5 mM KCl, 7.4 mM Na2HPO4, 1.3 mM KH2PO4, 0.63 mM CaCl2, 0.74 mM MgSO4, 5.3 mM glucose, 0.1 mM ascorbic acid, pH 7.4) containing 1% bovine serum albumin (BSA). Microvessel protein levels were determined with the Biorad DC protein assay kit (Hercules, Calif.). Incubation buffer, PACAP27 (4 μl of 0.8 nM), and any additives as indicated below were mixed with the 45 μl suspension of cells to a final volume of 60 μl (to give a final PACAP27 concentration of 53 pM) and incubated for 2.5 min at room temperature unless otherwise specified. At the end of incubation, samples were assayed for protein-bound radioactivity by vacuum filtration through Gelman Sciences glass microfiber filters (Ann Arbor, Mich.) pretreated with 0.5% polyethyleneimine. Filters were washed three times with 4 ml of incubation buffer at 4° C. The radioactivity trapped on the filters was measured using a gamma-counter. Nonspecific binding was determined in the absence of microvessels and under the above conditions was 20% of the total binding (TB). The specific binding was calculated as total binding minus non-specific binding and expressed as a percentage. All experiments were performed in triplicate on at least three occasions and the results reported as means with their standard errors.
Inhibition of Specific Binding of PACAP27. Self-inhibition was tested by adding varying amounts of unlabeled PACAP27. The percent of specific binding was calculated by taking the % TB for microvessels incubated with 0.8 nM PACAP27 as 100% and without microvessel incubation as 0%. An n of 3 was used per concentration. The fmol specifically bound was calculated by dividing the percent of specific binding by 100 and multiplying by the pM (PACAP27 and any unlabeled PACAP27 combined) of the incubation solution and by the volume. This was plotted against the nM in the media and the relation fitted to a one-site hyperbolic binding model.
Inhibition of I-PACAP27 Binding by PACAP Related Peptides. The effects of 50 nM of unlabeled PACAP27, PACAP38, the PACAP antagonists PACAP 6-27 and PACAP 6-38 (Bachem, Torrance, Calif.), and VIP (Sigma, St. Louis, Mo.) on PACAP27 specific binding was determined. Results were expressed as percent of control.

Type-I binding sites = conditions: anterior pituitary and hypothalamus, I-PACAP27 radioligand; cited from earlier work
beta-F1 ATPase = molecular target: T1, beta-F1 ATPase (Mus musculus, UniProt P56480); test: Brain perfusion uptake of I-PACAP27/I-PACAP38 after iv antisense; type: in vivo; conditions: single tail vein injection 24 h before study, 10 μg/mouse
T1 construct: from tissue; host or cells: brain / blood-brain barrier of living mice (CD-1; SAMP8 in the T-maze study)
Protocol: To test the effectiveness of PTS-6 antisenses after their intravenous administration, two month old male CD-1 mice kept on a 12/12 hour light/dark cycle with food and water freely available were given an injection by tail vein of 0.9% saline with or without 10 μg/mouse of each of the three antisenses. To determine the specificity of the PTS-6 antisense on I-PACAP27 efflux, three other antisenses were also injected iv. These were:
After 24 h, the mice were anesthetized with urethane and both jugular veins exposed. The thorax was opened, the descending thoracic aorta clamped, both jugular veins severed, and lactated Ringer's solution containing I-PACAP27 (250,000 cpm/ml) perfused through the left ventricle of the heart at the rate of 2 ml/min. ^131I-PACAP38 (hereafter referred to as I-PACAP38) was perfused in some mice treated with PTS-6 antisense. After 5 min, the perfusion was stopped and 20 ml of lactated Ringer's solution was infused through the left ventricle of the heart to wash out the vascular space of the brain. The level of radioactivity was determined in the brain and in an aliquot of the perfusion fluid and results expressed as the brain/perfusion ratio in units of μl/g.

T1 sequence (P56480 47-529): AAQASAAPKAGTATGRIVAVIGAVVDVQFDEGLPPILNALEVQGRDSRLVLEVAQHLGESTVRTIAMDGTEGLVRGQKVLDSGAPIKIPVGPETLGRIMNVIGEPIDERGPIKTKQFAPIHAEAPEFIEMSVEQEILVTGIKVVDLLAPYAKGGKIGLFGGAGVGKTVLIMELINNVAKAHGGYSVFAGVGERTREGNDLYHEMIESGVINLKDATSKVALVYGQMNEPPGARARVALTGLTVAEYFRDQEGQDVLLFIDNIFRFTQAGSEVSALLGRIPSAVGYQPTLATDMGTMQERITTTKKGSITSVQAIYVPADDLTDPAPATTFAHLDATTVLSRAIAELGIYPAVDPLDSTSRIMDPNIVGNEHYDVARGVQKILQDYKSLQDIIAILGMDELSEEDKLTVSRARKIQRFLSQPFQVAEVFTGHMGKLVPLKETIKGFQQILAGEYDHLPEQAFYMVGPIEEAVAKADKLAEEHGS

5′-(_P═S)TGATTTGGTCTCTGCAGGC-3′ (antisense dT*dG*dA*dT*dT*dT*dG*dG*dT*dC*dT*dC*dT*dG*dC*dA*dG*dG*dC; listed as Mus musculus) [P-19 mer]
distribution between brain capillaries and parenchyma (capillary depletion) [1]: detected in the target tissue, the brain capillaries
saturability of brain uptake [1]: not significantly decreased
rate of brain uptake (Ki) [1]: 0.18 µL/g/min
mean regional uptake into hippocampus (HPC) versus frontal cortex (FC) and whole brain (WB) [1]: greater than the uptake into the WB
half-life of efflux from the brain [2]: 3.858 h
rate of brain efflux [2]: 0.0013 % of the injected dose/min
percentage taken up by each gram of brain ([3]; 5 min after iv injection): 0.042 % Inj dose/g
percentage taken up by each gram of liver ([3]; 5 min after iv injection): 447 % Inj dose/g
percentage taken up by each gram of brain ([3]; 10 min after iv injection): 0.079 % Inj dose/g
percentage taken up by each gram of liver ([3]; 10 min after iv injection): 5.54 % Inj dose/g
percentage taken up by each gram of brain ([3]; 30 min after iv injection): 0.116 % Inj dose/g
percentage taken up by each gram of liver ([3]; 30 min after iv injection): 10.43 % Inj dose/g

PACAP [PACAP27]
time at which specific binding reached a maximum (mouse brain microvessels; 53 pM, room temperature): about 20 min
displacement of I-PACAP27 binding by unlabeled peptide (mouse brain microvessels; room temperature): PACAP38>PACAP27>PACAP(6-38)>PACAP(6-27)
amount of unlabeled PACAP27 above which binding was inhibited competitively (mouse brain microvessels; self-inhibition of I-PACAP27 binding): above 30 ng
Kd (Type-I binding sites): ~0.5 nM

PACAP(6-38): PACAP antagonist (FTDSYSRYRKQMAVKKYLAAVLGKRYKQRVKNK; ends and bridges not checked)
displacement of I-PACAP27 binding by unlabeled peptide (mouse brain microvessels; room temperature): PACAP38>PACAP27>PACAP(6-38)>PACAP(6-27)

5′-(_P═S)GTGTGGGCCGATGCAAACAGCAG-3′ (antisense dG*dT*dG*dT*dG*dG*dG*dC*dC*dG*dA*dT*dG*dC*dA*dA*dA*dC*dA*dG*dC*dA*dG; listed as Mus musculus) [P-23 mer]
distribution between brain capillaries and parenchyma (capillary depletion) [1]: detected in the target tissue, the brain capillaries
saturability of brain uptake [1]: significantly reduced
rate of brain uptake (Ki) [1]: 0.20 µL/g/min
mean regional uptake into hippocampus (HPC) versus frontal cortex (FC) and whole brain (WB) [1]: significantly greater
half-life of efflux from the brain [2]: 0.797 h
rate of brain efflux [2]: 0.0063 % of the injected dose/min
percentage taken up by each gram of brain ([3]; 5 min after iv injection): 0.010 % Inj dose/g
percentage taken up by each gram of liver ([3]; 5 min after iv injection): 2.71 % Inj dose/g
percentage taken up by each gram of brain ([3]; 10 min after iv injection): 0.044 % Inj dose/g
percentage taken up by each gram of liver ([3]; 10 min after iv injection): 5.33 % Inj dose/g
percentage taken up by each gram of brain ([3]; 30 min after iv injection): 0.052 % Inj dose/g
percentage taken up by each gram of liver ([3]; 30 min after iv injection): 7.67 % Inj dose/g

PACAP(6-27): PACAP antagonist (FTDSYSRYRKQMAVKKYLAAVL; ends and bridges not checked)
displacement of I-PACAP27 binding by unlabeled peptide (mouse brain microvessels; room temperature): PACAP38>PACAP27>PACAP(6-38)>PACAP(6-27)

5′-(_P═S)GATCACGTACACATCGACACCAGTCGCCATGACTGAGCTT (dG*dA*dT*dC*dA*dC*dG*dT*dA*dC*dA*dC*dA*dT*dC*dG*dA*dC*dA*dC*dC*dA*dG*dT*dC*dG*dC*dC*dA*dT*dG*dA*dC*dT*dG*dA*dG*dC*dT*dT; listed as Mus musculus) [random 42-mer]
uptake of I-PACAP27 delivered by brain perfusion (beta-F1 ATPase): no statistically significant effect

vasoactive intestinal polypeptide [VIP]
displacement of I-PACAP27 binding by unlabeled peptide (mouse brain microvessels; room temperature): not affected
Kd (Type-I binding sites): > 500 nM

PACAP38: biologically active form of pituitary adenylate cyclase-activating polypeptide
displacement of I-PACAP27 binding by unlabeled peptide (mouse brain microvessels; room temperature): PACAP38>PACAP27>PACAP(6-38)>PACAP(6-27)
Kd (Type-I binding sites): ~0.5 nM
